Results as given in article PMC3981819, “Signaling Properties and Pharmacological Analysis of Two Sulfakinin Receptors from the Red Flour Beetle, Tribolium castaneum” (PLoS ONE, 2014).
Square brackets hold non-standard residues; d marks the D form. Ends that are not written are not given here. pGlu = O=C1CC[C@@H](C(=O)O)N1

What was measured:
Trica-SKR2 = test: Aequorin-luminescence assay, CHO-WTA11 cells (Gα16) transfected with Trica-SKR2; format: cell-based, Tribolium castaneum; settings: for % Trica-SKR2 (relative activation): peptide at 1 μM, relative to sTrica-SK(5–13) at 1 μM = 100%, at least three biological repeats, each in duplicate
Experimental: (§1) General pharmacological studies were performed in Chinese Hamster Ovary (CHO) WTA11 cells, stably coexpressing apoaequorin, a zeocin resistance gene and the promiscuous Gα16, which couples most agonist-induced GPCRs to the phospholipase C and Ca^2+ pathway irrespective of their natural signaling cascade. CHO-PAM28 cells stably expressing apoaequorin and a puromycin resistance gene but not Gα16 and HEK293T cells (Invitrogen) were used to determine possible effects on Ca^2+ and/or cAMP second messenger systems, respectively. All cell lines were cultured in Dulbecco’s Modified Eagles Medium nutrient mixture F12-Ham (DMEM/F12; Invitrogen) supplemented with 1% penicillin/streptomycin (10000 units/ml penicillin and 10 mg/ml streptomycin in 0.9% NaCl; Invitrogen) to prevent bacterial contamination of gram-positive and gram-negative bacteria. In CHO-WTA11 culture medium 250 μg/ml zeocin (Invitrogen) was added as a selection marker, while CHO-PAM28 culture medium was supplemented with 5 μg/ml puromycin to select cells stably expressing apoaequorin. All cell culture media were supplemented with 10% fetal bovine serum (inactivated at […]; Sigma-Aldrich).
(§2) Cells were cultured in vitro as a monolayer at 37°C with a constant supply of 5% CO2 and were subcultivated twice a week. Transfections of cells were performed in T75 flasks at 60–80% confluency. Transfection reagent for CHO cells was prepared by combining 3.75 ml Opti-MEM I (Invitrogen), 7.5 μg plasmid DNA and 18.75 μl of Plus Reagent (Invitrogen). After gently mixing and 5 min incubation at room temperature 45 μl of Lipofectamine LTX was added to the mixture. This transfection medium was incubated for 30 min at room temperature and added dropwise to the cells, supplemented with 3 ml of fresh culture medium. HEK 293T cells were cotransfected with a receptor construct (6 μg) and CRE-luciferase reporter construct (3 μg), consisting of the open reading frame of the luciferase gene, downstream of a multimerized cAMP-response-element (CRE) and promoter. After transfection, cells were grown overnight before an additional 20 ml of culture medium was supplemented. Cells were again incubated overnight for a final growth phase before luminescence screens were performed.
(§3) The aequorin luminescence assay was used to measure Ca^2+ signaling in CHO cell lines. Cells were detached using phosphate buffered saline (PBS) containing 0.2% EDTA and collected in 10 ml of DMEM/F-12 (without phenol red, with L-glutamine and 10 mM HEPES; Gibco). The viable cells were quantified using a NucleoCounter NC-100 (Chemometic). Cells were pelleted by 4 min centrifugation at 800 rpm at room temperature and resuspended in DMEM/BSA (DMEM/F-12 without phenol red, with L-glutamine and 10 mM HEPES, 0.1% bovine serum albumin) at a concentration of 5×10^6 cells/ml. Cells were then shielded from light and Coelenterazine H (Invitrogen) was added at a final concentration of 5 μM. Cells were gently shaken at room temperature for 4 h under dark conditions, allowing the aequorin holoenzyme to be reconstituted. After a 10-fold dilution in DMEM/BSA, cells were incubated another 30 min under the same conditions. Pharmacological ligands were dissolved in DMEM/BSA and 50 μl of ligand was added to wells of a 96-well plate. Wells containing 50 μl of DMEM/BSA were used as a negative control, while wells containing 1 μM of ATP served as positive control. Incubated cells were added to the wells of the 96-well plate and light emission was measured for 30 s using a Mithras LB940 (Berthold Technologies). After 30 s Triton X-100 (0.2% in DMEM/BSA) was added, lysing the cells and thus serving as an internal reference. Light emission was measured for an additional 8 s after Triton X-100 was introduced in the wells. Light emission from each well was calculated relative to the total response (ligand+Triton X-100) using the output file of Mikrowin2000 software (Mikrotek). Further analysis was done in Graphpad Prism 5.

Trica-SKR1 = test: Aequorin-luminescence assay, CHO-WTA11 cells (Gα16) transfected with Trica-SKR1; format: cell-based, Tribolium castaneum; settings: for % Trica-SKR1 (relative activation): peptide at 1 μM, relative to sTrica-SK(5–13) at 1 μM = 100%, at least three biological repeats, each in duplicate
Experimental: as §1, §2, §3

[1] = target: Tribolium castaneum sulfakinin receptor 2 (T. castaneum)
[2] = target: Tribolium castaneum sulfakinin receptor 1 (T. castaneum)

Molecule | % Trica-SKR2 (relative activation) (Trica-SKR2; aequorin bioluminescence) | % Trica-SKR1 (relative activation) (Trica-SKR1; aequorin bioluminescence) | aequorin bioluminescence in CHO-WTA11 cells transfected with the receptor, peptide at 1 μM, % of the response to 1 μM sTrica-SK(5–13) [1] | aequorin bioluminescence in CHO-WTA11 cells transfected with the receptor, peptide at 1 μM, % of the response to 1 μM sTrica-SK(5–13) [2] | further results
FDDYGHMRAa [2003[φ1]wp-2, alanine scan analog of nsTrica-SK] | 15.6% | 8.2% | – | – | –
GHMRFa [2053[φ1]wp-4, truncated nonsulfated SK analog] | 44.6% | 13.3% | – | – | –
DGY(SO3H)RPLQFa [1678B[φ1]wp-6, sulfated SK-like peptide encoded by C. elegans nlp-12] | 19.9% | 28.5% | – | – | –
FDDYGAMRFa [2006[φ1]wp-1, alanine scan analog of nsTrica-SK] | 3.5% | 2.3% | – | – | –
DY(SO3H)RPLQFa [1678A[φ1]wp-4, sulfated SK-like peptide encoded by C. elegans nlp-12] | 32.6% | 40.8% | – | – | –
FDDYGHARFa [2005[φ1]wp-3, alanine scan analog of nsTrica-SK] | 11.1% | 5.1% | – | – | –
pQLASDDYGHMRFa [nsLocmi-SK, nonsulfated Locusta migratoria SK] | 18.2% | 22.2% | – | – | –
FDDYGHMRa [2076[φ1]wp-2] | 19.7% | 25.8% | – | – | –
DYGHMRFa [2010[φ1]wp-1, truncated nonsulfated SK analog] | 8.6% | 7.6% | – | – | –
FDDYGHMRFa [nsTrica-SK(5–13)] | 23.5% | 29.9% | – | – | –
DDYGHMRFa [2009[φ1]wp-1, truncated nonsulfated SK analog] | 17.1% | 27.2% | – | – | –
pQPSY(SO3H)DRDIMSFa [1679[φ1]wp-4, sulfated neuropeptide derived from C. elegans nlp-13] | 16.6% | 16.5% | – | – | –
FDDYAHMRFa [2007[φ1]wp-1, alanine scan analog of nsTrica-SK, glycine replaced] | 25.6% | 30.6% | – | – | –
YGHMRFa [2011[φ1]wp-1, truncated nonsulfated SK analog] | 21.2% | 26.3% | – | – | –
HMRFa [2052[φ1]wp-3, tetrapeptide HMRFamide, truncated analog] | 33.4% | 43.4% | – | – | –
SDDY(SO3H)GHMRFa [1835[φ2]wp-4, sulfated SK analog SDDY(SO3H)GHMRFa] | 41.4% | 58.2% | – | – | –

Molecule | % Trica-SKR2 (relative activation) (Trica-SKR2; aequorin bioluminescence) | % Trica-SKR1 (relative activation) (Trica-SKR1; aequorin bioluminescence) | aequorin bioluminescence in CHO-WTA11 cells transfected with the receptor, peptide at 1 μM, % of the response to 1 μM sTrica-SK(5–13) [1] | aequorin bioluminescence in CHO-WTA11 cells transfected with the receptor, peptide at 1 μM, % of the response to 1 μM sTrica-SK(5–13) [2] | further results
SPVDYDRPIMAFa [1432-2[φ]wp-6, peptide derived from C. elegans nlp-13] | 11.2% | 16.4% | – | – | –
PVDY(SO3H)DRPIMAFa [1569[φ2]wp-4, sulfated neuropeptide derived from C. elegans nlp-13] | 13.4% | 6.2% | – | – | –
pQLASDDY(SO3H)GHMRFa [sLocmi-SK, sulfated SK from the migratory locust, Locusta migratoria] | 79.9% | 75.0% | – | – | EC50 (Trica-SKR2; aequorin bioluminescence, 1 fM to 1 μM, three independent measurements in duplicate): 776 ± 443 nM; times less potent than sTrica-SK(5–13) as Trica-SKR2 agonist (Trica-SKR2; ratio of EC50 values): ca. 1500 times; EC50 (Trica-SKR1; aequorin bioluminescence, 1 fM to 1 μM, ± 95% confidence interval, three independent measurements in duplicate): 16.8 ± 4.6 nM; times less potent than sTrica-SK(5–13) in activating the Trica-SKR1 (Trica-SKR1; ratio of EC50 values): about 150 times
FDDYGHMAFa [2004[φ1]wp-1, alanine scan analog of nsTrica-SK] | 7.3% | 5.9% | – | – | –
SPVDY(SO3H)DRPIMAFa [1567[φ1]wp-5, sulfated neuropeptide derived from C. elegans nlp-13] | 33.7% | 23.6% | – | – | –
FDDAGHMRFa [2008[φ1]wp-2, alanine scan analog of nsTrica-SK, tyrosine replaced] | 12.1% | 10.1% | – | – | –
FDDYGHMRF-NH2 [nonsulfated Trica-SK(5–13)] | – | – | 23.5% | 29.9% | –
[pGlu]LASDDYGHMRF-NH2 (SMILES CSCC[C@H](NC(=O)[C@H](Cc1c[nH]cn1)NC(=O)CNC(=O)[C@H](Cc1ccc(O)cc1)NC(=O)[C@H](CC(=O)O)NC(=O)[C@H](CC(=O)O)NC(=O)[C@H](CO)NC(=O)[C@H](C)NC(=O)[C@H](CC(C)C)NC(=O)[C@@H]1CCC(=O)N1)C(=O)N[C@@H](CCCNC(=N)N)C(=O)N[C@@H](Cc1ccccc1)C(N)=O) [nsLocmi-SK] | – | – | 18.2% | 22.2% | –
FDDYGHMRA-NH2 [2003[φ1]wp-2] | – | – | 15.6% | 8.2% | –
FDDYGHMAF-NH2 [2004[φ1]wp-1] | – | – | 7.3% | 5.9% | –
FDDYGHARF-NH2 [2005[φ1]wp-3] | – | – | 11.1% | 5.1% | –
FDDYGAMRF-NH2 [2006[φ1]wp-1] | – | – | 3.5% | 2.3% | –
FDDYAHMRF-NH2 (ends and bridges not checked) [2007[φ1]wp-1] | – | – | 25.6% | 30.6% | –
FDDAGHMRF-NH2 [2008[φ1]wp-2] | – | – | 12.1% | 10.1% | –
DDYGHMRF-NH2 (ends and bridges not checked) [2009[φ1]wp-1] | – | – | 17.1% | 27.2% | –
DYGHMRF-NH2 (ends and bridges not checked) [2010[φ1]wp-1] | – | – | 8.6% | 7.6% | –
